Read-outs that look alike come from different tables or passages of the source.
What was measured:
[1] = system: isolated rat liver mitochondria; assay: Mitochondrial oxygen consumption (glutamate/malate or succinate driven, state 4 and state 3); assay type: biochemical; conditions: DMSO treated samples set as 1; for State 3 respiration driven by succinate at 10XCmax: key: 0 indicates that the drug had no effects (negative); for State 3 respiration driven by succinate at 1XCmax: key: 0 indicates that the drug had no effects (negative)
In short: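 Rat liver mitochondria (1 mg/ml protein) exposed 5 min to kinase inhibitors in 0.1% DMSO, then O2 consumption measured by Clark-type electrode with glutamate/malate or succinate (state 4), ADP added after 3 min (state 3). Rates normalized to 0.1% DMSO controls set to 1.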

[2] = system: RCC V; assay: RCC V activity in submitochondrial particles; assay type: biochemical, rat; conditions: relative to DMSO treated samples; for RCC V at 5XCmax: key: 0 indicates that the drug had no effects (negative)
In short: (§1)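 Inhibitors preincubated 15 min with submitochondrial particles (1 mg/ml) before activity readout. RCC I (rotenone-sensitive fraction) and I/V: A340, and RCC II: A600, each every 1 min for 6 min; RCC III/IV: A550 every 10 s for 2 min. Activities relative to DMSO control set as 1.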

[3] = cited from earlier work
[4] = system: isolated rat liver mitochondria; assay: Mitochondrial ROS production (CM-H2DCFDA); conditions: DMSO treated samples set as 1
[5] = cited from earlier work; remark: listed apart in the source
[6] = system: isolated rat liver mitochondria; conditions: positive control alamethicin treated samples
[7] = molecular target: T1, RCC II (Rattus norvegicus, UniProt P21913+Q641Z9+Q6PCT8+Q920L2); assay: RCC II activity in submitochondrial particles; assay type: biochemical; design: key: activity relative to DMSO-treated controls (control set as 1 = 100%); conditions: relative to DMSO treated samples
T1 construct: Submitochondrial particles were prepared by subjecting the intact mitochondria to three successive freeze–thaw cycles; from tissue; host or cells: rat liver mitochondria, used as submitochondrial particles
T1 sequence (Q920L2 35-656): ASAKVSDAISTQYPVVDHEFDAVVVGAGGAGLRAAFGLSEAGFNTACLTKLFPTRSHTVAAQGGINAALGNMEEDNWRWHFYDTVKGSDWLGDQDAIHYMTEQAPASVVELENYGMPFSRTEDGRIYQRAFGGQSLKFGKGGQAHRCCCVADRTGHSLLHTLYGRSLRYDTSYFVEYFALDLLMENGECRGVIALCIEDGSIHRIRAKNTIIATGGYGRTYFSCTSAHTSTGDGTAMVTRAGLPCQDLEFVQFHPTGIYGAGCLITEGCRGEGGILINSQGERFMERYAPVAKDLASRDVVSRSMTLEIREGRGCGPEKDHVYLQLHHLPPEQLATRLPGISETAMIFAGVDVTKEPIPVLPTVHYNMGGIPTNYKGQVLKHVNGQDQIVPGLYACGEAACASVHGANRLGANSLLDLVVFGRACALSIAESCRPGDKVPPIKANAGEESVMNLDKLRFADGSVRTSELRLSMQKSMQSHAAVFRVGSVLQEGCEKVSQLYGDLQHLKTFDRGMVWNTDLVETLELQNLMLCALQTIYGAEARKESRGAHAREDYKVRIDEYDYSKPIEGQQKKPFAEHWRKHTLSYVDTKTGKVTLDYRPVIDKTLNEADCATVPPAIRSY
T1 sequence (P21913 31-282): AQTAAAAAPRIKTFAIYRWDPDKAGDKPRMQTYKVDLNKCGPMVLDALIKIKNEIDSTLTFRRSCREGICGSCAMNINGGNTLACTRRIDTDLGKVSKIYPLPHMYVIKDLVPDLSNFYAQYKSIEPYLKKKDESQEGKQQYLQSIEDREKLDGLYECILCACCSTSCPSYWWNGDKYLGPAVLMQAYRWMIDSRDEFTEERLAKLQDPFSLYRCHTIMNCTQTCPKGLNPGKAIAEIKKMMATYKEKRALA
T1 sequence (Q641Z9 1-169): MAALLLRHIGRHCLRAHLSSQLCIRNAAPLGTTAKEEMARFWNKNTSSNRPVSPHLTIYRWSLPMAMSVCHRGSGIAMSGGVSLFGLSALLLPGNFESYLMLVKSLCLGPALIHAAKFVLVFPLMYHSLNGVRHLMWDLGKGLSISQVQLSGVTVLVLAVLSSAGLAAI
T1 sequence (Q6PCT8 57-159): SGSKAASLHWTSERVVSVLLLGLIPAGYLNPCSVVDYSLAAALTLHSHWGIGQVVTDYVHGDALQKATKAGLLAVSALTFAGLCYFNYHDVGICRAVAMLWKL
In short: as §1

[8] = system: RCC III; assay: RCC III activity in submitochondrial particles; assay type: biochemical, rat; design: key to RCC III at 100XCmax: activity relative to DMSO-treated controls (control set as 1 = 100%); conditions: 100XCmax; relative to DMSO treated samples
In short: as §1

[9] = system: isolated rat liver mitochondria; assay: Mitochondrial swelling (absorbance at 535 nm); assay type: biochemical; conditions: difference in signal between KI and DMSO treated samples at the end of experiments; for Swelling 5XCmax: key: 0 indicates that the drug had no effects (negative)
[10] = system: RCC I; assay: RCC I activity in submitochondrial particles; assay type: biochemical, rat; design: key to RCC I at 10XCmax / RCC I at 100XCmax / RCC I at 50XCmax / RCC I at 30XCmax / RCC I at 20XCmax: activity relative to DMSO-treated controls (control set as 1 = 100%); conditions: 10XCmax; relative to DMSO treated samples
In short: as §1

SMILES: CNC(=O)c1ccccc1Sc1ccc2c(/C=C/c3ccccn3)n[nH]c2c1 [Axitinib]
- State 3 respiration driven by glutamate/malate at 1XCmax ([1]; 1XCmax): 0
- State 3 respiration driven by succinate at 1XCmax ([1]; 1XCmax): 0
- State 4 respiration driven by glutamate/malate at 1XCmax ([1]; 1XCmax): 0
- State 4 respiration driven by succinate at 1XCmax ([1]; 1XCmax): 0
- State 3 respiration driven by glutamate/malate at 2.5XCmax ([1]; 2.5XCmax): 0
- State 3 respiration driven by succinate at 2.5XCmax ([1]; 2.5XCmax): 0
- State 4 respiration driven by glutamate/malate at 2.5XCmax ([1]; 2.5XCmax): 0
- State 4 respiration driven by succinate at 2.5XCmax ([1]; 2.5XCmax): 0
- State 3 respiration driven by glutamate/malate at 5XCmax ([1]; 5XCmax): 0
- State 3 respiration driven by succinate at 5XCmax ([1]; 5XCmax): 0
- State 4 respiration driven by glutamate/malate at 5XCmax ([1]; 5XCmax): 0
- State 4 respiration driven by succinate at 5XCmax ([1]; 5XCmax): 0
- State 3 respiration driven by glutamate/malate at 10XCmax ([1]; 10XCmax): 0
- State 3 respiration driven by succinate at 10XCmax ([1]; 10XCmax): 0
- State 4 respiration driven by glutamate/malate at 10XCmax ([1]; 10XCmax): 0
- State 4 respiration driven by succinate at 10XCmax ([1]; 10XCmax): 0
- State 3 respiration driven by glutamate/malate at 20XCmax ([1]; 20XCmax): 0
- State 3 respiration driven by succinate at 20XCmax ([1]; 20XCmax): 0
- State 4 respiration driven by glutamate/malate at 20XCmax ([1]; 20XCmax): 0
- State 4 respiration driven by succinate at 20XCmax ([1]; 20XCmax): 0
- State 3 respiration driven by glutamate/malate at 30XCmax ([1]; 30XCmax): 0
- State 3 respiration driven by succinate at 30XCmax ([1]; 30XCmax): 0
- State 4 respiration driven by glutamate/malate at 30XCmax ([1]; 30XCmax): 0
- State 4 respiration driven by succinate at 30XCmax ([1]; 30XCmax): 0
- State 3 respiration driven by glutamate/malate at 50XCmax ([1]; 50XCmax): 0
- State 3 respiration driven by succinate at 50XCmax ([1]; 50XCmax): 0
- State 4 respiration driven by glutamate/malate at 50XCmax ([1]; 50XCmax): 0
- State 4 respiration driven by succinate at 50XCmax ([1]; 50XCmax): 0
- State 3 respiration driven by glutamate/malate at 100XCmax ([1]; 100XCmax): 0
- State 3 respiration driven by succinate at 100XCmax ([1]; 100XCmax): 0
- State 4 respiration driven by glutamate/malate at 100XCmax ([1]; 100XCmax): 0
- State 4 respiration driven by succinate at 100XCmax ([1]; 100XCmax): 0
- RCC V at 5XCmax ([2]; 5XCmax): 0
- RCC V at 50XCmax ([2]; 50XCmax): 0
- DILI potential (based on labeling) ([3]; 1 = DILI positive, 0 = negative, ref product labeling): 1
- Labeling for DILI ([3]; BBW: black box warning, W&P: Warnings and Precautions, ref product labeling): W&P: ALT↑
- labeling for DILI ([3]; W&P warnings and precautions, BBW black box warnings, ref FDA product labeling): W&P: ALT↑/monitoring
- DILI potential (based on labeling) ([3]; ref FDA product labeling): 1
- ROS measured by CM-H2DCFDA at 1XCmax ([4]; 1XCmax): 0
- ROS measured by CM-H2DCFDA at 2.5XCmax ([4]; 2.5XCmax): 0
- ROS measured by CM-H2DCFDA at 5XCmax ([4]; 5XCmax): 0
- ROS measured by CM-H2DCFDA at 10XCmax ([4]; 10XCmax): 0
- ROS measured by CM-H2DCFDA at 20XCmax ([4]; 20XCmax): 0
- ROS measured by CM-H2DCFDA at 30XCmax ([4]; 30XCmax): 0
- ROS measured by CM-H2DCFDA at 50XCmax ([4]; 50XCmax): 0
- ROS measured by CM-H2DCFDA at 100XCmax ([4]; 100XCmax): 0
- Cmax ([5]; human therapeutic Cmax at FDA recommended dosages, ref product labeling and drug approval packages at the official FDA website): 70 nM
- Cmax ([5]; therapeutic maximal blood concentration, ref product labeling): 27.8 ng/mL
- Cytochrome c release 1XCmax ([6]; 1XCmax): 0
- Cytochrome c release 2.5XCmax ([6]; 2.5XCmax): 0
- Cytochrome c release 5XCmax ([6]; 5XCmax): 0
- Cytochrome c release 10XCmax ([6]; 10XCmax): 0
- Cytochrome c release 20XCmax ([6]; 20XCmax): 0
- Cytochrome c release 30XCmax ([6]; 30XCmax): 0
- Cytochrome c release 50XCmax ([6]; 50XCmax): 0
- Cytochrome c release 100XCmax ([6]; 100XCmax): 0
- RCC II at 1.0XCmax ([7]; 1.0XCmax): 0
- RCC II at 2.5XCmax ([7]; 2.5XCmax): 0
- RCC II at 5XCmax ([7]; 5XCmax): 0
- RCC II at 10XCmax ([7]; 10XCmax): 0
- RCC II at 20XCmax ([7]; 20XCmax): 0
- RCC II at 30XCmax ([7]; 30XCmax): 0
- RCC II at 50XCmax ([7]; 50XCmax): 0
- RCC II at 100XCmax ([7]; 100XCmax): 0
- RCC III at 100XCmax [8]: 0
- Swelling 1XCmax ([9]; 1XCmax): 0
- Swelling 2.5XCmax ([9]; 2.5XCmax): 0
- Swelling 5XCmax ([9]; 5XCmax): 0
- Swelling 10XCmax ([9]; 10XCmax): 0
- Swelling 20XCmax ([9]; 20XCmax): 0
- Swelling 30XCmax ([9]; 30XCmax): 0
- Swelling 50XCmax ([9]; 50XCmax): 0
- Swelling 100XCmax ([9]; 100XCmax): 0
- RCC I at 10XCmax [10]: 0

Source: publication PMC5515969, “Effects of 31 FDA approved small-molecule kinase inhibitors on isolated rat liver mitochondria” (Archives of Toxicology, 2016)
